# Test results taken from US10800789B2, “Antiviral compounds” (Gilead Pharmasset LLC, priority 2012, dated 2020).
# Like-named read-outs stand apart in the source and are kept apart here.
# Legend:
# [1] = test system: NS5A chimeric genotype 1b Con1 replicon with genotype 4a ED43 strain NS5A gene; experiment: Replicon assay, genotype 4a NS5A chimera; format: cell-based, HCV; details: Hepatitis C virus
# [2] = test system: stable HCV 2a JFH-1 Rluc replicon cells (L31 present in NS5A); experiment: Renilla luciferase HCV replicon reporter assay, genotype 2a JFH-1; format: cell-based; details: Hepatitis C virus
# Outline: (§1)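 First, 3-fold serial dilutions of compound went onto replicon cells, DMSO serving as no-inhibition control and ITMN-191 at >100×EC50 as positive control. Next came 72 h incubation, lysis and Renilla luciferase measurement. Finally, EC50 was calculated by non-linear regression; replicons covered genotypes 1a H77, 1b Con1, 2a JFH-1 (L31) and J6-NS5A chimera (M31).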
# [3] = test system: stable HCV 1a RLuc replicon cells (dicistronic genotype 1a H77 replicon); experiment: Renilla luciferase HCV replicon reporter assay, genotype 1a; format: cell-based; details: Hepatitis C virus, 72 h, stable 1a H77 RLuc replicon cells
# Outline: as §1
# [4] = test system: NS5A chimeric genotype 2a JFH-1 replicon with genotype 2a J6 strain NS5A gene (M31 present); experiment: Replicon assay, genotype 2a J6 NS5A chimera; format: cell-based, HCV; details: Hepatitis C virus
# Outline: as §1
# [5] = test system: NS5A chimeric genotype 1b Con1 replicon with genotype 3a S52 strain NS5A gene; experiment: Replicon assay, genotype 3a NS5A chimera; format: cell-based, HCV; details: Hepatitis C virus
# [6] = test system: NS5A chimeric genotype 2a JFH-1 replicon with genotype 2b MD2b-1 strain NS5A gene (M31 present); experiment: Replicon assay, genotype 2b NS5A chimera; format: cell-based, HCV; details: Hepatitis C virus
# Outline: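 EC50 was fitted by non-linear regression to Renilla luciferase signal after 72 h of exposure to 3-fold serially diluted compound (10 mM DMSO stocks). Controls were DMSO (none) and ITMN-191 above 100×EC50 (full). Chimeric 2a replicons were used either stable or transiently transfected into Huh-Lunet cells.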
# [7] = test system: Q30R in genotype 1a NS5A (1a Pi-Rluc replicon, Huh-7-derived cured-51 cells); experiment: Replicon assay against resistance mutant 1a Q30R; format: cell-based, HCV; details: Hepatitis C virus
# Experimental: Antiviral potency (EC50) was determined using a Renilla luciferase (RLuc)-based HCV replicon reporter assay. To perform the assay for genotype 1 and 2a JFH-1, stable HCV 1a RLuc replicon cells (harboring a dicistronic genotype 1a H77 replicon that encodes a RLuc reporter), stable HCV 1b RLuc replicon cells (harboring a dicistronic genotype 1b Con1 replicon that encodes a RLuc reporter), or stable HCV 2a JFH-1 Rluc replicon cells (harboring a dicistronic genotype 2a JFH-1 replicon that encodes a RLuc reporter; with L31 present in NS5A) were dispensed into 384-well plates for EC50 assays. To perform the assay for genotype 2a (with M31 present in NS5A) or 2b, NS5A chimeric genotype 2a JFH-1 replicons that encodes a RLuc-Neo reporter and either genotype 2a J6 strain NS5A gene or genotype 2b MD2b-1 strain NS5A gene (both with M31 present) respectively, were either transiently transfected (t) into Huh-Lunet cells or were established as stably replicating replicon cells (s) is provided. Either cells were dispensed into 384-well plates for EC50 assays. To perform the assay for genotype 3 and 4, NS5A chimeric genotype 1b Con1 replicons that encodes a Pi-RLuc reporter and either genotype 3a S52 strain NS5A gene or genotype 4a ED43 strain NS5A gene respectively, were transiently transfected (t) into Huh-Lunet cells, which were subsequently dispensed into 384-well plates. Compounds were dissolved in DMSO at a concentration of 10 mM and diluted in DMSO either manually or using an automated pipeting instrument. Serially 3-fold diluted compounds were either manually mixed with cell culture media and added to the seeded cells or directly added to the cells using an automated instrument. DMSO was used as a negative (solvent; no inhibition) control, and the protease inhibitor ITMN-191 was included at a concentration>100×EC50 as a positive control. 72 hours later, cells were lysed and Renilla luciferase activity quantified as recommended by the manufacturer (Promega-Madison, Wis.). Non-linear regression was performed to calculate EC50 values.
# To determine the antiviral potency (EC50) against resistance mutants, resistance mutations, including M28T, Q30R, Q30H, Q30E, L31M, Y93C, Y93H, and Y93N in genotype 1a NS5A, Y93H and L31V/Y93H in genotype 1b NS5A, and Y93H for in genotype 3a NS5A, were introduced individually into either 1a Pi-Rluc or 1b Pi-Rluc replicons by site directed mutagenesis. Replicon RNA of each resistant mutant was transiently transfected into Huh-7-derived cured-51 cells and antiviral potency was determined on these transfected cells as described above.
# [8] = test system: stable HCV 1b RLuc replicon cells (dicistronic genotype 1b Con1 replicon); experiment: Renilla luciferase HCV replicon reporter assay, genotype 1b; format: cell-based; details: Hepatitis C virus, 72 h, stable 1b Con1 RLuc replicon cells, 72 hours; read-out: 1b
# Outline: as §1
# [9] = read-out: 4a (s) (nM), genotype 4a NS5A chimeric replicon, stable replicon cells (s)
# [10] = read-out: 4a (s), (s), activity range
# [11] = read-out: 2a JFH (nM), genotype 2a JFH-1 replicon (L31 in NS5A), stable cells
# [12] = read-out: 2a JFH, stable 2a JFH-1 Rluc replicon cells, L31 in NS5A, activity range
# [13] = read-out: 2a J6 (t) (nM), genotype 2a J6 NS5A chimeric replicon (M31), transiently transfected (t) into Huh-Lunet cells
# [14] = read-out: 2a J6 (t), transiently transfected (t) into Huh-Lunet cells, activity range
# [15] = read-out: 3a (s) (nM), genotype 3a NS5A chimeric replicon, stable replicon cells (s)
# [16] = read-out: 3a (s), (s), activity range
# [17] = 2BS, read-out: 2b (s), stably replicating replicon cells (s), activity range
# [18] = read-out: 2b (s) (nM), genotype 2b MD2b-1 NS5A chimeric replicon (M31), stably replicating replicon cells (s)
# [19] = read-out: 2b (t) (nM), genotype 2b MD2b-1 NS5A chimeric replicon (M31), transiently transfected (t)
# [20] = read-out: 2b (t), transiently transfected (t) into Huh-Lunet cells, activity range
SMILES,"EC50 [1, 9]","EC50 [1, 10]","EC50 [2, 11]","EC50 [2, 12]",EC50 [3],EC50 ([3]; activity range),"EC50 [4, 13]","EC50 [4, 14]","EC50 [5, 15]","EC50 [5, 16]","EC50 [6, 17]","EC50 [6, 18]",EC50 ([7]; read-out: 1a Q30R),EC50 ([7]; read-out: 1a Q30R (nM)),EC50 [8],"EC50 [6, 19]","EC50 [6, 20]"
CC[C@H]1C[C@@H](c2nc3ccc4cc5c(cc4c3[nH]2)OCc2cc(-c3cnc([C@@H]4CC[C@H](C)N4C(=O)[C@@H](NC(=O)OC)C(C)C)[nH]3)ccc2-5)N(C(=O)[C@@H](NC(=O)OC)C2CCOCC2)C1 [GV],0.016 nM,< 0.1 nM,0.008 nM,< 0.1 nM,0.018 nM,< 0.1 nM,0.012 nM,< 0.1 nM,0.042 nM,< 0.1 nM,0.1 to 0.999 nM,0.112 nM,< 0.1 nM,0.061 nM,0.027 nM,,
"CC[C@H]1CC[C@@H](c2nc3ccc4cc5c(cc4c3[nH]2)OCc2cc(-c3cnc([C@@H]4CC[C@H](C)N4C(=O)[C@@H](NC(=O)OC)C(C)C)[nH]3)ccc2-5)N1C(=O)[C@@H](NC(=O)OC)C1CCOCC1 [EO, methyl[(1 S)-2-[(2S,5S)-2-ethyl-5-(9-{2-[(2S,5S)-1-{(2S)-2 [(methoxycarbonyl)amino]-3-methylbutanoyl}-5-methylpyrrolidin-2-yl]-1H-imidazol-5-yl}-1,11-dihydroisochromeno[4′,3′:6,7]naphtho[1,2-d]imidazol-2-yl)pyrrolidin-1-yl]-2-oxo-1-(tetrahydro-2H-pyran-4-yl)ethyl]carbamate]",,,0.017 nM,< 0.1 nM,0.024 nM,< 0.1 nM,,,0.054 nM,< 0.1 nM,< 0.1 nM,0.091 nM,< 0.1 nM,0.052 nM,0.04 nM,0.038 nM,< 0.1 nM
"COC[C@H]1C[C@@H](c2ncc(-c3ccc4c(c3)c(=O)oc3cc5c(ccc6nc([C@@H]7CC[C@H](C)N7C(=O)[C@@H](NC(=O)OC)C(C)C)[nH]c65)cc34)[nH]2)N(C(=O)[C@H](NC(=O)OC)c2ccccc2)C1 [GK, methyl {(1R)-2-[(2S,4S)-2-(5-{2-[(2S,5S)-1-{(2S)-2-[(methoxycarbonyl)amino]-3-methylbutanoyl}-5-methylpyrrolidin-2-yl]-11-oxo-1,11-dihydroisochromeno[4′,3′:6,7]naphtho[1,2-d]imidazol-9-yl}-1H-imidazol-2-yl)-4-(methoxymethyl)pyrrolidin-1-yl]-2-oxo-1-phenylethyl}carbamate]",0.028 nM,< 0.1 nM,0.024 nM,< 0.1 nM,0.031 nM,< 0.1 nM,0.071 nM,< 0.1 nM,0.156 nM,0.1 to 0.999 nM,0.1 to 0.999 nM,0.187 nM,0.1 to 0.999 nM,0.111 nM,0.036 nM,0.087 nM,< 0.1 nM
"COC(=O)N[C@H](C(=O)N1[C@@H](C)CC[C@H]1c1ncc(-c2ccc3c(c2)COc2cc4c(ccc5nc([C@@H]6CC[C@H](C)N6C(=O)[C@@H](NC(=O)OC)[C@@H](C)OC)[nH]c54)cc2-3)[nH]1)C1CCOCC1 [FR, Methyl [(1 S)-2-[(2S,5S)-2-(5-{2-[(2S,5S)-1-{(2S,3R)-3-methoxy-2-[(methoxycarbonyl)amino]butanoyl}-5-methylpyrrolidin-2-yl]-1,11-dihydroisochromeno[4′,3′:6,7]naphtho[1,2-d]imidazol-9-yl}-1H-imidazol-2-yl)-5-methylpyrrolidin-1-yl]-2-oxo-1-(tetrahydro-2H-pyran-4-yl)ethyl]carbamate]",,,0.015 nM,< 0.1 nM,0.026 nM,< 0.1 nM,,,0.031 nM,< 0.1 nM,< 0.1 nM,0.054 nM,< 0.1 nM,0.071 nM,0.05 nM,,
"COC(=O)N[C@H](C(=O)N1[C@@H](C)CC[C@H]1c1ncc(-c2ccc3c(c2)COc2cc4c(ccc5nc([C@@H]6CC[C@H](C)N6C(=O)[C@@H](NC(=O)OC)[C@@H](C)O)[nH]c54)cc2-3)[nH]1)C(C)C [FI, Methyl {(2S,3R)-3-hydroxy-1-[(2S,5S)-2-(9-{2-[(2S,5S)-1-{(2S)-2-[(methoxycarbonyl)amino]-3-methylbutanoyl}-5-methylpyrrolidin-2-yl]-1H-imidazol-5-yl}-1,11-dihydroisochromeno[4′,3′:6,7]naphtho[1,2-d]imidazol-2-yl)-5-methylpyrrolidin-1-yl]-1-oxobutan-2-yl}carbamate]",0.012 nM,< 0.1 nM,0.015 nM,< 0.1 nM,0.01 nM,< 0.1 nM,,,0.04 nM,< 0.1 nM,0.1 to 0.999 nM,0.152 nM,0.1 to 0.999 nM,0.115 nM,0.022 nM,,
"CC[C@H](C)[C@H](NC(=O)OC)C(=O)N1[C@@H](C)CC[C@H]1c1ncc(-c2ccc3c(c2)COc2cc4c(ccc5nc([C@@H]6CC[C@H](C)N6C(=O)[C@@H](NC(=O)OC)C6CCOCC6)[nH]c54)cc2-3)[nH]1 [GG, Methyl [(2S,3S)-1-{(2S,5S)-2-[5-(2-{(2S,5S)-1-[(2S)-2-[(methoxycarbonyl)amino]-2-(tetrahydro-2H-pyran-4-yl)acetyl]-5-methylpyrrolidin-2-yl}-1,11-dihydroisochromeno[4′,3′:6,7]naphtho[1,2-d]imidazol-9-yl)-1H-imidazol-2-yl]-5-methylpyrrolidin-1-yl}-3-methyl-1-oxopentan-2-yl]carbamate]",0.013 nM,< 0.1 nM,0.02 nM,< 0.1 nM,0.015 nM,< 0.1 nM,,,0.038 nM,< 0.1 nM,< 0.1 nM,0.083 nM,< 0.1 nM,0.032 nM,0.022 nM,0.044 nM,< 0.1 nM
